# Source: patent US6737383B1, “Herbicidal oxadiazolidines” (priority 1999, dated 2004)
# Legend:
# blackgrass = test: Test B pre/postemergence blackgrass; type: in vivo, Alopecurus myosuroides
# In short: (§1)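 Test chemicals in a non-phytotoxic solvent mixture with surfactant were sprayed preemergence onto planted seeds and postemergence onto plants 2 to 18 cm tall (1- to 4-leaf stage). After twelve to sixteen days in a greenhouse, injury was visually rated against untreated controls from 0 (no effect) to 10 (complete control).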
# smallflower flatsedge = test: Test B flood test smallflower flatsedge; type: in vivo, Cyperus difformis
# In short: (§2)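 Plants were grown to the 2-leaf stage before treatment with test chemical, then held in a greenhouse for twelve to sixteen days. Injury was visually rated against untreated controls on a 0–10 scale, where 0 is no effect and 10 is complete control.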
# sugar beet = test: Test B pre/postemergence sugar beet; type: in vivo, Beta vulgaris
# In short: as §1
# rape = test: Test B pre/postemergence rape; type: in vivo, Brassica napus
# In short: as §1
# purple nutsedge = test: Test B pre/postemergence purple nutsedge; type: in vivo, Cyperus rotundus
# In short: as §1
# soybean = test: Test B pre/postemergence soybean; type: in vivo, Glycine max
# In short: as §1
# duck salad = test: Test B flood test duck salad; type: in vivo, Heteranthera limosa
# In short: as §2
# cocklebur = test: Test B pre/postemergence cocklebur; type: in vivo, Xanthium strumarium
# In short: as §1
# surinam grass = test: Test B pre/postemergence surinam grass; type: in vivo, Brachiaria decumbens
# In short: as §1
# corn = test: Test B pre/postemergence corn; type: in vivo, Zea mays
# In short: as §1
# velvetleaf = test: Test B pre/postemergence velvetleaf; type: in vivo, Abutilon theophrasti
# In short: as §1
# wild oat = test: Test B pre/postemergence wild oat; type: in vivo, Avena fatua
# In short: as §1
# bamyardgrass = test: Test B flood test barnyardgrass; type: in vivo, Echinochloa crus-galli
# In short: as §2
# crabgrass = test: Test B pre/postemergence crabgrass; type: in vivo, Digitaria sanguinalis
# In short: as §1
# rice = test: Test B flood test rice; type: in vivo, Oryza sativa
# In short: as §2
# wheat = test: Test B pre/postemergence wheat; type: in vivo, Triticum aestivum
# In short: as §1
# bedstraw = test: Test B pre/postemergence bedstraw; type: in vivo, Galium aparine
# In short: as §1
# [1] = Preemergence, Rate 62 g/ha, scale of 0 to 10 where 0 is no effect and 10 is complete control
# [2] = Preemergence, Rate 125 g/ha, 0 is no effect, 10 is complete control
# [3] = Preemergence, Rate 250 g/ha, scale 0 to 10, 0 is no effect, 10 is complete control
# [4] = Preemergence, Rate 500 g/ha, scale of 0 to 10 where 0 is no effect and 10 is complete control
# [5] = Rate 62 g/ha, Postemergence, scale of 0 to 10 where 0 is no effect and 10 is complete control
# [6] = Rate 125 g/ha, Postemergence, scale 0 to 10
# [7] = Rate 500 g/ha, Postemergence, scale 0 to 10
# [8] = Rate 62 g/ha, headed Pre-emergence (flood test species), scale 0 to 10 (0 no effect, 10 complete control)
# [9] = Rate 125 g/ha, Pre-emergence, flood test species, scale 0 to 10 where 0 is no effect and 10 is complete control
# [10] = Rate 250 g/ha, Pre-emergence, flood-test species, scale 0 to 10, 0 is no effect, 10 is complete control
# [11] = Rate 500 g/ha, headed Pre-emergence (flood test species), scale 0 to 10 (0 no effect, 10 complete control)
compound,measurement,setting,value
Cc1ccccc1-n1c(=O)on(C(=O)N(c2ccccc2F)C(C)C)c1=O [Compound 204],Blackgrass plant response rating,blackgrass; [1],0
same,Blackgrass plant response rating (0 to 10 scale),blackgrass; [2],2
same,Blackgrass plant response rating,blackgrass; [3],2
same,"Plant response rating, Blackgrass",blackgrass; [4],5
same,Blackgrass plant response rating,blackgrass; [5],0
same,Blackgrass plant response rating,blackgrass; [6],2
same,"Plant response rating (0 to 10; 0 is no effect, 10 is complete control), Blackgrass","blackgrass; Rate 250 g/ha, Postemergence",3
same,Blackgrass plant response rating,blackgrass; [7],7
same,S. Flatsedge plant response rating,smallflower flatsedge; [8],0
same,S. Flatsedge plant response rating,smallflower flatsedge; [9],0
same,S. Flatsedge plant response rating,smallflower flatsedge; [10],0
same,S. Flatsedge plant response rating,"smallflower flatsedge; Rate 500 g/ha, Pre-emergence, flood test species, scale 0 to 10 (0 no effect, 10 complete control)",0
same,Sugarbeets plant response rating,sugar beet; [1],0
same,Sugarbeets plant response rating (0 to 10 scale),sugar beet; [2],0
same,Sugarbeets plant response rating,sugar beet; [3],0
same,"Plant response rating, Sugarbeets",sugar beet; [4],0
same,Sugarbeets plant response rating,sugar beet; [5],0
same,Sugarbeets plant response rating,sugar beet; [6],0
same,"Plant response rating (0 to 10; 0 is no effect, 10 is complete control), Sugarbeets","sugar beet; Rate 250 g/ha, Postemergence",0
same,Sugarbeets plant response rating,sugar beet; [7],0
same,Rape plant response rating,rape; [1],0
same,Rape plant response rating (0 to 10 scale),rape; [2],0
same,Rape plant response rating,rape; [3],0
same,"Plant response rating, Rape",rape; [4],3
same,Rape plant response rating,rape; [5],0
same,Rape plant response rating,rape; [6],0
same,"Plant response rating (0 to 10; 0 is no effect, 10 is complete control), Rape","rape; Rate 250 g/ha, Postemergence",0
same,Rape plant response rating,rape; [7],0
same,Nutsedge plant response rating,purple nutsedge; [1],0
same,Nutsedge plant response rating (0 to 10 scale),purple nutsedge; [2],0
same,Nutsedge plant response rating,purple nutsedge; [3],0
same,"Plant response rating, Nutsedge",purple nutsedge; [4],0
same,Nutsedge plant response rating,purple nutsedge; [5],0
same,Nutsedge plant response rating,purple nutsedge; [6],0
same,"Plant response rating (0 to 10; 0 is no effect, 10 is complete control), Nutsedge","purple nutsedge; Rate 250 g/ha, Postemergence",0
same,Nutsedge plant response rating,purple nutsedge; [7],0
same,Soybean plant response rating,soybean; [1],0
same,Soybean plant response rating (0 to 10 scale),soybean; [2],0
same,Soybean plant response rating,soybean; [3],0
same,"Plant response rating, Soybean",soybean; [4],0
same,Soybean plant response rating,soybean; [5],1
same,Soybean plant response rating,soybean; [6],1
same,"Plant response rating (0 to 10; 0 is no effect, 10 is complete control), Soybean","soybean; Rate 250 g/ha, Postemergence",1
same,Soybean plant response rating,soybean; [7],7
same,Ducksalad plant response rating,duck salad; [8],0
same,Ducksalad plant response rating,duck salad; [9],0
same,Ducksalad plant response rating,duck salad; [10],0
same,"Plant response rating, Ducksalad",duck salad; [11],0
same,Cocklebur plant response rating,cocklebur; [1],0
same,Cocklebur plant response rating (0 to 10 scale),cocklebur; [2],0
same,Cocklebur plant response rating,cocklebur; [3],0
same,"Plant response rating, Cocklebur",cocklebur; [4],0
same,Cocklebur plant response rating,cocklebur; [5],0
same,Cocklebur plant response rating,cocklebur; [6],0
same,"Plant response rating (0 to 10; 0 is no effect, 10 is complete control), Cocklebur","cocklebur; Rate 250 g/ha, Postemergence",1
same,Cocklebur plant response rating,cocklebur; [7],1
same,B. signalgrass plant response rating,surinam grass; [1],0
same,B. signalgrass plant response rating (0 to 10 scale),surinam grass; [2],0
same,B. signalgrass plant response rating,surinam grass; [3],0
same,"Plant response rating, B. signalgrass",surinam grass; [4],2
same,B. signalgrass plant response rating,surinam grass; [5],0
same,B. signalgrass plant response rating,"surinam grass; Rate 125 g/ha, Postemergence, scale 0 (no effect) to 10 (complete control)",0
same,"Plant response rating, B. signalgrass","surinam grass; Rate 250 g/ha, Postemergence, scale 0 to 10, 0 is no effect, 10 is complete control",0
same,B. signalgrass plant response rating,"surinam grass; Rate 500 g/ha, Postemergence, scale 0 to 10, 0 no effect, 10 complete control",0
same,Corn plant response rating,corn; [1],0
same,Corn plant response rating (0 to 10 scale),corn; [2],0
same,Corn plant response rating,corn; [3],0
same,"Plant response rating, Corn",corn; [4],2
same,Corn plant response rating,corn; [5],0
same,Corn plant response rating,corn; [6],0
same,"Plant response rating (0 to 10; 0 is no effect, 10 is complete control), Corn","corn; Rate 250 g/ha, Postemergence",0
same,Corn plant response rating,corn; [7],0
same,Velvetleaf plant response rating,velvetleaf; [1],0
same,Velvetleaf plant response rating,velvetleaf; [3],0
same,"Plant response rating, Velvetleaf",velvetleaf; [4],0
same,Velvetleaf plant response rating,velvetleaf; [5],0
same,Velvetleaf plant response rating,velvetleaf; [6],1
same,"Plant response rating (0 to 10; 0 is no effect, 10 is complete control), Velvetleaf","velvetleaf; Rate 250 g/ha, Postemergence",1
same,Wild oats plant response rating,wild oat; [1],0
same,Wild oats plant response rating,wild oat; [3],3
same,"Plant response rating, Wild oats",wild oat; [4],6
same,Wild oats plant response rating,wild oat; [5],0
same,Wild oats plant response rating,wild oat; [6],0
same,"Plant response rating (0 to 10; 0 is no effect, 10 is complete control), Wild oats","wild oat; Rate 250 g/ha, Postemergence",0
same,Barnyardgrass plant response rating,bamyardgrass; [8],0
same,Barnyardgrass plant response rating,bamyardgrass; [9],0
same,Barnyardgrass plant response rating,bamyardgrass; [10],0
same,"Plant response rating, Barnyardgrass",bamyardgrass; [11],0
same,Crabgrass plant response rating,crabgrass; [1],6
same,Crabgrass plant response rating (0 to 10 scale),crabgrass; [2],8
same,Crabgrass plant response rating,crabgrass; [3],8
same,"Plant response rating, Crabgrass",crabgrass; [4],8
same,Crabgrass plant response rating,crabgrass; [5],0
same,Crabgrass plant response rating,crabgrass; [6],0
same,"Plant response rating (0 to 10; 0 is no effect, 10 is complete control), Crabgrass","crabgrass; Rate 250 g/ha, Postemergence",2
same,Crabgrass plant response rating,crabgrass; [7],5
same,Rice plant response rating,rice; [8],0
same,Rice plant response rating,rice; [9],0
same,Rice plant response rating,rice; [10],0
same,"Plant response rating, Rice",rice; [11],0
same,Wheat plant response rating,wheat; [1],0
same,Wheat plant response rating,wheat; [3],0
same,"Plant response rating, Wheat",wheat; [4],2
same,Wheat plant response rating,wheat; [5],0
same,Wheat plant response rating,wheat; [6],0
same,"Plant response rating (0 to 10; 0 is no effect, 10 is complete control), Wheat","wheat; Rate 250 g/ha, Postemergence",0
same,Bedstraw plant response rating,bedstraw; [1],0
same,Bedstraw plant response rating (0 to 10 scale),bedstraw; [2],0
same,Bedstraw plant response rating,bedstraw; [3],0
same,"Plant response rating, Bedstraw",bedstraw; [4],0
same,Bedstraw plant response rating,bedstraw; [5],0
same,Bedstraw plant response rating,bedstraw; [6],0
same,"Plant response rating (0 to 10; 0 is no effect, 10 is complete control), Bedstraw","bedstraw; Rate 250 g/ha, Postemergence",6
same,Bedstraw plant response rating,bedstraw; [7],7
